# Where two headings read alike, the source gives them in different places.
# Tests used:
# Format in all cases: cell-based
# histamine H3 -receptor [1] = molecular target: T1, histamine H3 -receptor (Cavia porcellus, UniProt Q9JI35); experiment: Antagonistic activity on the H3-receptor, ileum guinea pig
# T1 construct: ileum guinea pig; from tissue; host or cells: guinea pig ileum
# Procedure: (§1) The agonistics and antagonistics activities on the H3 -receptor of the various compounds were determined compared to histamine. The test methods used therefor are described in Van der Werf et al., Agents and Actions 20, 3/4 (1987) p. 239-243 and Menkveld et al., European Journal of Pharmacology, 186 (1990) p. 343-347.
# histamine H3 -receptor [2] = experiment: Antagonistic activity on the H3-receptor, test preparation not stated; settings: Example 6 table, test method not stated
# Procedure: as §1
# histamine H3 -receptor [3] = molecular target: T1, histamine H3 -receptor; experiment: Agonistic activity on the H3-receptor, ileum guinea pig; settings: Table 3, agonistic activity, read-out: pD2 (converted)
# Procedure: (§2) The agonistics and antagonistics activities on the H3 -receptor of the various compounds were determined compared to histamine.
# histamine H3 -receptor [4] = experiment: Agonistic activity on the H3-receptor, test preparation not stated; settings: in words
# Procedure: as §1
# histamine H3 -receptor [5] = molecular target: T2, histamine H3 -receptor (Rattus norvegicus, UniProt Q9QYN8); experiment: Antagonistic activity on the H3-receptor, rat cortex; settings: Table 2, antagonistic activity, read-out: pA2 (converted)
# T2 construct: Van der Werf et al., Agents and Actions 20, 3/4 (1987) p; 239-243; from tissue
# Procedure: as §1
# histamine H3 -receptor [6] = molecular target: T2, histamine H3 -receptor; experiment: Agonistic activity on the H3-receptor, rat cortex; settings: Table 3, agonistic activity, read-out: pD2 (converted)
# Procedure: as §2
# [7] = Table 2, antagonistic activity, ileum guinea pig, read-out: pA2 (converted)
# T1 sequence (Q9JI35 whole entry): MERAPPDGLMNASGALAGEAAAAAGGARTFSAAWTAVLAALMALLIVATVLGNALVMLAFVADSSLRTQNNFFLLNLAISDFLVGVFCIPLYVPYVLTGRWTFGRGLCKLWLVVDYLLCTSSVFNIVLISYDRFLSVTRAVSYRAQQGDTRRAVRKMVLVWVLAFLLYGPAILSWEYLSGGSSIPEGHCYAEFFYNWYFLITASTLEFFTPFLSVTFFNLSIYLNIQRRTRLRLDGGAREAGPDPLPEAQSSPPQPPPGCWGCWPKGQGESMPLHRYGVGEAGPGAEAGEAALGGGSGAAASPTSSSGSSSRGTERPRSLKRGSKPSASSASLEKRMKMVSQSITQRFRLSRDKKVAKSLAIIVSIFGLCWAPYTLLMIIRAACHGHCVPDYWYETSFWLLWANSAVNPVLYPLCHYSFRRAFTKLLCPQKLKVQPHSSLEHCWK
# T2 sequence (Q9QYN8 whole entry): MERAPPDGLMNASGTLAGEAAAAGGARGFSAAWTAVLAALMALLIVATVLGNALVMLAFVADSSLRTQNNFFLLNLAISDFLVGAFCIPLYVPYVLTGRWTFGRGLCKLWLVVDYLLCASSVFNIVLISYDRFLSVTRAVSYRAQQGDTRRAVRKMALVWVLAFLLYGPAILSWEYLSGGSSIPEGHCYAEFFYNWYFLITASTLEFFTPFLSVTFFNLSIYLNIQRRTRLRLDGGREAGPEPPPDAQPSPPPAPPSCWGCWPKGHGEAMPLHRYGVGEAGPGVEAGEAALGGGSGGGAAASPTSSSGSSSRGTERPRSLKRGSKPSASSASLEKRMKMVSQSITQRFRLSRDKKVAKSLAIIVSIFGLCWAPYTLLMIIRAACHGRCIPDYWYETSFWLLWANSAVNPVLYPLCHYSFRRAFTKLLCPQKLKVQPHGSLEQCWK
SMILES,pA2 (histamine H3 -receptor [2]),Kb (histamine H3 -receptor [1]) [nM],also measured
"NC(=NCCCCc1ccccc1)SCCCc1cnc[nH]1 [VUF 4571, S-[3-(4(5)-imidazolyl)propyl]-N-(4-phenylbutyl)isothiourea]",,,Kb (histamine H3 -receptor [1]; [7]): 3.98 nM
"N=C(NCCc1ccc(Br)cc1)SCCCc1c[nH]cn1 [VUF 4598, N-[2-(4-bromophenyl)ethyl]-S-[3-(4(5)-imidazolyl)propyl] isothiourea.2HBr]",9.0,,
"N=C(NCc1ccc(F)cc1)SCCCc1c[nH]cn1 [VUF 4650, N-(4-fluorobenzyl)-S-[3-(4(5)-imidazolyl)propyl]isothiourea.2HBr]",9.38,,
"N=C(NCc1ccc(Br)cc1)SCCCc1c[nH]cn1 [VUF 4651, N-(4-bromobenzyl)-S-[3-(4(5)-imidazolyl)propyl]isothiourea.2HBr]",9.77,,
"N=C(NCc1ccc(I)cc1)SCCCc1c[nH]cn1 [VUF 4652, N-(4-iodobenzyl)-S-[3-(4(5)-imidazolyl)propyl]isothiourea.2HBr]",9.21,,
"Cc1ccc(CNC(=N)SCCCc2c[nH]cn2)cc1 [VUF 4653, S-[3-(4(5)-imidazolyl)propyl]-N-(4-methylbenzyl) isothiourea.2HBr]",9.36,,
COc1ccc(CNC(=N)SCCCc2c[nH]cn2)cc1 [VUF 4654],9.39,,
"N=C(NCc1ccc(Cl)c(Cl)c1)SCCCc1c[nH]cn1 [VUF 4656, N-(3,4-dichlorobenzyl)-S-[3-(4(5)-imidazolyl)propyl] isothiourea.2HBr]",8.96,,
N=C(NCCc1ccc(Cl)cc1)SCCCc1c[nH]cn1 [VUF 4657],9.2,,
"Cc1ccc(CCNC(=N)SCCCc2c[nH]cn2)cc1 [VUF 4658, S-[3-(4(5)-imidazolyl)propyl]-N-[2-(4-methylphenyl)ethyl]isothiourea.2HBr]",8.4,,
COc1ccc(CCNC(=N)SCCCc2c[nH]cn2)cc1 [VUF 4659],8.3,,
"N=C(NCc1ccccc1)SCCCCc1c[nH]cn1 [VUF 4661, N-benzyl-S-[4-(4(5)-imidazolyl)butyl]isothiourea dipicrate]",8.72,,
"N=C(NCCc1ccccc1)SCCCCc1c[nH]cn1 [VUF 4662, N-(2-phenylethyl)-S-[4-(4(5)-imidazolyl)butyl]isothiourea dipicrate]",8.13,,
"N=C(N)SCCc1c[nH]cn1 [VUF 8325, S-[2-(4-imidazolyl)ethyl]isothiourea]",,,EC50 (histamine H3 -receptor [3]): 7.94 nM; agonistic activity (histamine H3 -receptor [4]): strong agonistic activity
N=C(Nc1ccccc1)SCCc1c[nH]cn1 [VUF 8397],,,Kb (histamine H3 -receptor [5]): 100 nM
N=C(NCCSCc1ccccc1)SCCc1c[nH]cn1 [VUF 8404],,39.8,
N=C(NCCCc1c[nH]cn1)NCCSCc1ccccc1 [VUF 8405],,,Kb (histamine H3 -receptor [1]; [7]): 12.6 nM

SMILES,pA2 (histamine H3 -receptor [2]),Kb (histamine H3 -receptor [1]) [nM],also measured
N=C(NCCSC(c1ccccc1)c1ccccc1)SCCc1c[nH]cn1 [VUF 8409],,,Kb (histamine H3 -receptor [1]; [7]): 251 nM
"N=C(NCCSCc1ccccc1)SCCCc1c[nH]cn1 [VUF 8414, N-[2-(benzylthio)ethyl]-S-[3-(imidazol-4-yl)propyl]isothiourea]",,,Kb (histamine H3 -receptor [1]; [7]): 2.51 nM
CNC(=N)SCCc1c[nH]cn1 [VUF 8621],,,EC50 (histamine H3 -receptor [3]): 50.1 nM
"N=C(NCCc1c[nH]cn1)Nc1ccccc1 [VUF 9006, N-[2-(imidazol-4-yl)ethyl]-N'-phenyl guanidine dipicrate]",,,Kb (histamine H3 -receptor [1]; [7]): 1580 nM
"N=C(NCCc1ccccc1)NCCc1cnc[nH]1 [VUF 9007, N-[2-(imidazol-4-yl)ethyl]-N'-phenyl-ethylguanidine dipicrate]",,,Kb (histamine H3 -receptor [1]; [7]): 501 nM
"N=C(NCc1ccccc1)SCCc1c[nH]cn1 [VUF 9028, N-benzyl-S-[2-(imidazol-4-yl)ethyl]isothiourea dipicrate]",,15.8,
"N=C(NCCc1ccccc1)SCCc1c[nH]cn1 [VUF 9029, S-[2-(imidazol-4-yl)ethyl]-N-(2-phenylethyl)-isothiourea]",,10,
N=C(NCCCc1ccccc1)SCCc1c[nH]cn1 [VUF 9030],,25.1,
N=C(NCCCCc1ccccc1)SCCc1c[nH]cn1 [VUF 9031],,20,
CN=C(NCCc1ccccc1)SCCc1c[nH]cn1 [VUF 9051],,15.8,
"N=C(NCc1ccccc1)SCCCc1c[nH]cn1 [VUF 9107, N-benzyl-S-[3-(4(5)-imidazolyl)propyl]isothiourea]",,1.58,
"N=C(NCCc1ccccc1)SCCCc1c[nH]cn1 [VUF 9151, S-[3-(4(5)-imidazolyl)propyl]-N-(2-phenylethyl)isothiourea]",,1.58,
"N=C(NCCCc1ccccc1)SCCCc1c[nH]cn1 [VUF 9152, S-[3-(4(5)-imidazolyl)propyl]-N-(3-phenylpropyl)isothiourea]",,5.01,
"NC(=NCc1ccc(Cl)cc1)SCCCc1cnc[nH]1 [VUF 9153, S-[3-(4(5)-imidazolyl)propyl]-N-(4-chlorobenzyl)isothiourea]",,0.126,
"N=C(NCC1CCCCC1)SCCCc1c[nH]cn1 [VUF 9163, N-cyclohexylmethyl-S-[3-(4(5)-imidazolyl)propyl]isothiourea]",,,Kb (histamine H3 -receptor [1]; [7]): 1.58 nM
N=C(N)NCCc1c[nH]cn1 [VUF 83100],,,EC50 (histamine H3 -receptor [6]): 39.8 nM

# Source: US5837718A, “Imidazole-derivatives having agonistic or antagonistic activity on the histamine H3-receptor” (Seed Capital Investment (SCI) B.V., priority 1995, dated 1998)
